Source: patent US20240384268A1, “Oligonucleotides” (Hudson Institute of Medical Research, priority 2021, published 2024)
In the oligonucleotide strings, read from the 5' end, every base follows the letter of its sugar. An asterisk marks phosphorothioate; unmarked linkages are phosphodiester. Other units and linkages are bracketed, terminal groups are in braces. A string of capitals states the bases alone. d = 2'-deoxy (DNA); m = 2'-O-methyl

Target: T1, human TLR9 (Homo sapiens, UniProt Q9NR96)
T1 construct: HA; host or cells: 293XL-hTLR9-HA (HEK293)
T1 sequence (Q9NR96 26-1032): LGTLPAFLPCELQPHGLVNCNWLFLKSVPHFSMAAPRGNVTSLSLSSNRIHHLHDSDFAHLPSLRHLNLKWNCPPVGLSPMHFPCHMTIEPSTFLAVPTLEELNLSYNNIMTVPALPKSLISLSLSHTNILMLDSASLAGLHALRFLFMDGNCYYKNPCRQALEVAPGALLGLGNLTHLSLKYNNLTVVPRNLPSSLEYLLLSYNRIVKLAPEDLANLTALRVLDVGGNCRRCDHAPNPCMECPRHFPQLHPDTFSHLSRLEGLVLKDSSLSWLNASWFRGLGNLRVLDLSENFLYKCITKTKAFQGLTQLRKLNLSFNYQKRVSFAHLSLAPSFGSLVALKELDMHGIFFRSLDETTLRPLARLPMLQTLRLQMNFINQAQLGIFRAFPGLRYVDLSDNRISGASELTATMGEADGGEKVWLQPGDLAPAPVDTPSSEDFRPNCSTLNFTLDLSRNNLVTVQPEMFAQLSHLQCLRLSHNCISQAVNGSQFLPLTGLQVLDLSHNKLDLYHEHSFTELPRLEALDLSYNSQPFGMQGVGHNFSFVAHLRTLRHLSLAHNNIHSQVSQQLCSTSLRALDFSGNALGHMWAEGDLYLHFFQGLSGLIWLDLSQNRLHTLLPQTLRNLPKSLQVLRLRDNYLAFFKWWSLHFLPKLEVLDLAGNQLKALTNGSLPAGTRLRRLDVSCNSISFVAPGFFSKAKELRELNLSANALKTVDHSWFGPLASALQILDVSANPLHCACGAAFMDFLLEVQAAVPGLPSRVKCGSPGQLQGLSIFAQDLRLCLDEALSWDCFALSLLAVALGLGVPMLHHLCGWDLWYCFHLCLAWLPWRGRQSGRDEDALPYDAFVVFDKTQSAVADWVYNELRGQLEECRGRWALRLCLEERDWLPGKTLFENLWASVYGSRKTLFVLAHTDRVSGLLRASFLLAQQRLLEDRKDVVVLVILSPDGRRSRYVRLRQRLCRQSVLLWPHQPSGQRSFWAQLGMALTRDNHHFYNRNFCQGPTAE
Test: HEK-TLR9 NF-κB-luciferase reporter, ODN2006 stimulation
Assay type: cell-based
Conditions: for TLR9 100 nM: MOE-modified ASO at 100 nM; for TLR9 100 nM / TLR9 500 nM: averaged NF-κB-Luciferase relative to ODN2006 condition; for TLR9 500 nM: MOE-modified ASO at 500 nM; for TLR9-500 nM: averaged NF-κB-Luciferase relative to ODN2006: HEK-TLR9, 500 nM ASO 45 min, then 200 nM ODN2006 overnight, percentage of ODN2006 only

Substance | TLR9 100 nM | TLR9 500 nM | TLR9-500 nM: averaged NF-κB-Luciferase relative to ODN2006 [%]
AGTCGTAGTTGCTTCCTAAC (antisense; 2'-MOE modified, pattern not given here) [MB21D1-1181 MOE] | 0.527 | 0.341 | –
ATGCCATCCACTTGATAGGC (antisense; 2'-MOE modified, pattern not given here) [EGFR-2874 MOE] | 0.712 | 0.589 | –
CGGAGGTCTTGGCTTCGTGG (antisense; 2'-MOE modified, pattern not given here) [MB21D1-525 MOE] | 0.938 | 0.556 | –
CGGCATCCACCACGTCGTCC (antisense; 2'-MOE modified, pattern not given here) [EGFR-3267 MOE] | 0.449 | 0.373 | –
GCCCATCCATGAGGTCCTGG (antisense; 2'-MOE modified, pattern not given here) [CTNN2B-2545 MOE] | 0.324 | 0.175 | –
GCTGACAAAGATTCACTGGT (antisense; 2'-MOE modified, pattern not given here) [HPRT-1353 MOE] | 0.653 | 0.654 | –
GGGTATCGAAAGAGTCTGGA (antisense; 2'-MOE modified, pattern not given here) [EGFR-3908 MOE] | 0.349 | 0.203 | –
GGTTTTGGCTGGGATCAAGT (antisense; 2'-MOE modified, pattern not given here) [CAMSAP1-4697 MOE] | 0.381 | 0.200 | –
GTCCAAGATCAGCAGTCTCA (antisense; 2'-MOE modified, pattern not given here) [CTNN2B-2341 MOE] | 0.430 | 0.535 | –
TCCGGCCTCGGAAGCTCTCT (antisense; 2'-MOE modified, pattern not given here) [MB21D1-168 MOE] | 0.242 | 0.000 | –
TGGCAGGCTCAGTGATGTCT (antisense; 2'-MOE modified, pattern not given here) [CTNN2B-1642 MOE] | 0.722 | 0.479 | –
TGGGCTGGAATCCGAGTTAT (antisense; 2'-MOE modified, pattern not given here) [EGFR-4705 MOE] | 0.443 | 0.241 | –
TGGGTTACGGCTCAGTATGG (antisense; 2'-MOE modified, pattern not given here) [CAMSAP1-4295 MOE] | 0.478 | 0.228 | –
TTTGCACACTTCGTACCCAA (antisense; 2'-MOE modified, pattern not given here) [CAMSAP1-4916 MOE] | 0.735 | 0.514 | –
mA*mA*mA*mA*mG*A*T*T*A*T*C*T*T*C*T*mU*mU*mU*mA*mA (AAAAGATTATCTTCTUUUAA; sugars from the 5' end m5 d10 m5, all phosphorothioate, methylation of C not given here) [[CDKN2B-AS1]2133] | – | – | 80.95
mA*mA*mA*mA*mU*A*A*G*G*G*G*A*A*T*A*mG*mG*mG*mG*mA (mA*mA*mA*mA*mU*dA*dA*dG*dG*dG*dG*dA*dA*dT*dA*mG*mG*mG*mG*mA; antisense) [[CDKN2B-AS1]79] | – | – | 67.44
mA*mA*mA*mG*mA*T*T*A*T*C*T*T*C*T*T*mU*mU*mA*mA*mU (mA*mA*mA*mG*mA*dT*dT*dA*dT*dC*dT*dT*dC*dT*dT*mU*mU*mA*mA*mU) [[CDKN2B-AS1]2132] | – | – | 63.14

Substance | TLR9 100 nM | TLR9 500 nM | TLR9-500 nM: averaged NF-κB-Luciferase relative to ODN2006 [%]
mA*mA*mA*mU*mG*T*C*C*T*G*G*C*C*C*T*mC*mA*mC*mU*mG (mA*mA*mA*mU*mG*dT*dC*dC*dT*dG*dG*dC*dC*dC*dT*mC*mA*mC*mU*mG) [[LINC-PINT]148.1] | – | – | 46.72
mA*mA*mG*mA*mU*T*A*T*C*T*T*C*T*T*T*mU*mA*mA*mU*mU (mA*mA*mG*mA*mU*dT*dA*dT*dC*dT*dT*dC*dT*dT*dT*mU*mA*mA*mU*mU) [[CDKN2B-AS1]2131] | – | – | 59.77
mA*mA*mG*mG*mU*G*G*C*C*A*C*A*G*G*C*mA*mA*mC*mG*mU (mA*mA*mG*mG*mU*dG*dG*dC*dC*dA*dC*dA*dG*dG*dC*mA*mA*mC*mG*mU; antisense) [[CDKN2B-AS1]2198] | – | – | 84.28
mA*mA*mU*mA*mU*C*T*G*C*T*G*C*C*C*A*mC*mC*mU*mU*mC (mA*mA*mU*mA*mU*dC*dT*dG*dC*dT*dG*dC*dC*dC*dA*mC*mC*mU*mU*mC; antisense) [[CDKN2B-AS1]832] | – | – | 70.72
mA*mA*mU*mU*mU*A*A*A*G*C*A*T*G*A*A*mU*mA*mU*mU*mA (mA*mA*mU*mU*mU*dA*dA*dA*dG*dC*dA*dT*dG*dA*dA*mU*mA*mU*mU*mA) [[CDKN2B-AS1]645] | – | – | 53.26
mA*mC*mC*mC*mU*T*C*T*C*T*C*T*G*G*T*mC*mC*mC*mA*mU (mA*mC*mC*mC*mU*dT*dC*dT*dC*dT*dC*dT*dG*dG*dT*mC*mC*mC*mA*mU; antisense) [[LINC-PINT]115] | – | – | 32.00
mA*mG*mA*mA*mA*G*A*A*G*C*A*A*A*G*A*mU*mU*mC*mA*mA (AGAAAGAAGCAAAGAUUCAA; sugars from the 5' end m5 d10 m5, all phosphorothioate, methylation of C not given here) [[CDKN2B-AS1]1519] | – | – | 68.12
mA*mG*mA*mU*mU*A*T*C*T*T*C*T*T*T*T*mA*mA*mU*mU*mU (AGAUUATCTTCTTTTAAUUU; sugars from the 5' end m5 d10 m5, all phosphorothioate, methylation of C not given here) [[CDKN2B-AS1]2130] | – | – | 78.72
mA*mG*mC*mC*mG*A*A*C*A*G*A*A*G*G*A*mG*mC*mG*mU*mC (AGCCGAACAGAAGGAGCGUC; sugars from the 5' end m5 d10 m5, all phosphorothioate, methylation of C not given here) [[LINC-PINT]587 KL] | – | – | 57.46
mA*mG*mG*mA*mU*T*A*A*A*A*C*A*G*A*T*mU*mA*mA*mU*mA (mA*mG*mG*mA*mU*dT*dA*dA*dA*dA*dC*dA*dG*dA*dT*mU*mA*mA*mU*mA) [[CDKN2B-AS1] 1775] | – | – | 63.48
mA*mG*mG*mC*mC*T*C*C*A*G*T*G*T*C*T*mU*mC*mU*mC*mC (mA*mG*mG*mC*mC*dT*dC*dC*dA*dG*dT*dG*dT*dC*dT*mU*mC*mU*mC*mC; antisense) [[CDKN2B-AS1]2218] | – | – | 81.24
mA*mU*mA*mU*mC*T*G*C*T*G*C*C*C*A*C*mC*mU*mU*mC*mU (AUAUCTGCTGCCCACCUUCU; antisense; sugars from the 5' end m5 d10 m5, all phosphorothioate, methylation of C not given here) [[CDKN2B-AS1]831] | – | – | 73.46
mA*mU*mG*mA*mC*A*T*T*T*C*G*T*G*G*C*mU*mC*mC*mU*mA (mA*mU*mG*mA*mC*dA*dT*dT*dT*dC*dG*dT*dG*dG*dC*mU*mC*mC*mU*mA) [[LINC-PINT]524.1] | – | – | 107.12
mC*mA*mA*mG*mC*C*C*C*A*G*C*G*T*T*C*mC*mU*mC*mC*mG (mC*mA*mA*mG*mC*dC*dC*dC*dA*dG*dC*dG*dT*dT*dC*mC*mU*mC*mC*mG; antisense) [[LINC-PINT]83.1] | – | – | 93.79
mC*mA*mC*mC*mC*T*T*C*T*C*T*C*T*G*G*mU*mC*mC*mC*mA (CACCCTTCTCTCTGGUCCCA; antisense; sugars from the 5' end m5 d10 m5, all phosphorothioate, methylation of C not given here) [[LINC-PINT]116] | – | – | 102.85
mC*mA*mC*mU*mG*T*A*T*T*T*T*A*T*T*A*mC*mA*mG*mA*mA (mC*mA*mC*mU*mG*dT*dA*dT*dT*dT*dT*dA*dT*dT*dA*mC*mA*mG*mA*mA; antisense) [[LINC-PINT]2990] | – | – | 117.42
mC*mA*mG*mG*mC*C*T*C*C*A*G*T*G*T*C*mU*mU*mC*mU*mC (mC*mA*mG*mG*mC*dC*dT*dC*dC*dA*dG*dT*dG*dT*dC*mU*mU*mC*mU*mC; antisense) [[CDKN2B-AS1]2219] | – | – | 66.99
